The values below come from patent US9751854B2 (Millennium Pharmaceuticals, Inc., priority 2014, dated 2017).

Sequence of human VPS34 (Q8NEB9 whole entry): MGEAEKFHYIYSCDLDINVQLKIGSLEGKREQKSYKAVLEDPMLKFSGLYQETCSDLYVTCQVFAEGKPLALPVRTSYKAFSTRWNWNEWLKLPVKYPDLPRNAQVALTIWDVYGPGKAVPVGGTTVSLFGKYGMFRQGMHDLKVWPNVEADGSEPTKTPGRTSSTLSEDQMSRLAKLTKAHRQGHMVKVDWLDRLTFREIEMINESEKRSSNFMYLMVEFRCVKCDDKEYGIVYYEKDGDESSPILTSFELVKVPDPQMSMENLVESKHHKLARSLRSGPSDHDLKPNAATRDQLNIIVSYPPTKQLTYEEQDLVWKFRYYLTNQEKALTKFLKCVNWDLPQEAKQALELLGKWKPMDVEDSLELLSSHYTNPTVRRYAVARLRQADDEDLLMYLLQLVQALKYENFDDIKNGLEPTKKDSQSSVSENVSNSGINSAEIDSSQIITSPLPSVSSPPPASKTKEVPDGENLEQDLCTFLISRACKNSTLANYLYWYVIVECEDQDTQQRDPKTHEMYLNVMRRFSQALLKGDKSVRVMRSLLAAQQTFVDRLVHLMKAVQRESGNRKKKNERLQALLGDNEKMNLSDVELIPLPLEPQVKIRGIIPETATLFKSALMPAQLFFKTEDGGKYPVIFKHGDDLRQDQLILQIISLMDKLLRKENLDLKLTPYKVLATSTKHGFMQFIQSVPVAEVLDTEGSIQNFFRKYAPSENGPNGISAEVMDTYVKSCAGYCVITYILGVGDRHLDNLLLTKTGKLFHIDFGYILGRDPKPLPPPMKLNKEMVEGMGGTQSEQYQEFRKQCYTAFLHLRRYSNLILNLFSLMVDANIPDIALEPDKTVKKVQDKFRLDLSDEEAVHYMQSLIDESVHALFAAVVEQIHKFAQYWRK

One experiment concerns the target human VPS34 (Homo sapiens (Human), UniProt Q8NEB9). The experiment can be described thus: Human VPS34 enzyme assay (Adapta TR-FRET ADP detection). In kind it is biochemical. Also noted: Percent Inhibition: dose or concentration left out as unconfirmed.
Conditions: not given
A general note: In TR-FRET formats the signal depends on donor and acceptor labels being close together.
Regarding `CC(=O)Nc1cc(-c2cnc(C)c(NS(=O)(=O)c3cccc(Cl)c3Cl)c2)ccn1` [Compound I-342, N-(5-{[(2,3-dichlorophenyl)sulfonyl]amino}-6-methyl-3,4′-bipyridin-2′-yl)acetamide], the “Percent Inhibition” value is listed as over 99%.

Still in this experiment, the particulars now being: IC50 range class.
By IC50 is commonly meant the concentration that inhibits the measured activity by half. `Cc1nccc(Nc2cc(-c3cncc(C(C)Oc4ccccc4Cl)c3)ccn2)n1` (stereo not drawn) [Compound I-336, 5-[1-(2-chlorophenoxy)ethyl]-N-(2-methylpyrimidin-4-yl)-3,4′-bipyridin-2′-amine] gave an IC50 of 10 to 50 nM.
`CC(=O)Nc1cc(-c2cnc(N)c(N3CCCC3=O)c2)ccn1` [Compound I-337, N-[6-amino-5-(2-oxopyrrolidin-1-yl)-3,4′-bipyridin-2′-yl]acetamide] displayed a half-maximal inhibitory concentration (IC50) of over 100 nM.
Same read-out and setting: with `CC(=O)Nc1cc(-c2cncc(S(=O)(=O)NC3CC3)c2)ccn1` [Compound I-338] the figure was 10 to 50 nM.
On the same count and under the same terms, then `CC(=O)Nc1cc(-c2cnc(C)c(NS(=O)(=O)c3cccc(C)c3F)c2)ccn1` [Compound I-339, N-(5-{[(2-fluoro-3-methylphenyl)sulfonyl]amino}-6-methyl-3,4′-bipyridin-2′-yl)acetamide], with 10 to 50 nM; and `CC(=O)Nc1cc(-c2cc(NS(=O)(=O)c3ccc(F)cc3F)c3ncnn3c2)ccn1` [Compound I-340, N-[4-(8-{[(2,4-difluorophenyl)sulfonyl]amino}[1,2,4]triazolo[1,5-a]pyridin-6-yl)pyridin-2-yl]acetamide], with 10 to 50 nM; and `CC(=O)Nc1cc(-c2cnc(C)c(NS(=O)(=O)N3CCCCCC3)c2)ccn1` [Compound I-341], with 10 to 50 nM.
Still for that read-out and setting: with `CC(=O)Nc1cc(-c2cnc(C)c(NS(=O)(=O)c3cccc(Cl)c3Cl)c2)ccn1` [Compound I-342, N-(5-{[(2,3-dichlorophenyl)sulfonyl]amino}-6-methyl-3,4′-bipyridin-2′-yl)acetamide] the figure was under 10 nM.
In turn, `CC(=O)Nc1cc(-c2cnc(C)c(N3CCCN(C)S3(=O)=O)c2)ccn1` [Compound I-343] registered an IC50 of 10 to 50 nM.
Still for that read-out and setting: then `COc1ncc(-c2ccnc(NC(C)=O)c2)cc1S(=O)(=O)Nc1ccc(Cl)cc1Cl` [Compound I-344], with 10 to 50 nM; and `Cc1nccc(Nc2cc(-c3cnc(C)c(C(=O)N(C)c4ccc(F)cc4F)c3)ccn2)n1` [Compound I-346, N-(2,4-difluorophenyl)-N,6-dimethyl-2′-[(2-methylpyrimidin-4-yl)amino]-3,4′-bipyridine-5-carboxamide], with 10 to 50 nM; and `COc1ncc(-c2ccnc(NC(C)=O)c2)cc1NC(=O)c1ccc(F)cc1F` [Compound I-347, N-(2′-acetamido-6-methoxy-3,4′-bipyridin-5-yl)-2,4-difluorobenzamide], with over 100 nM.
`CC(=O)Nc1cc(-c2cncc(NS(=O)(=O)N(C)C)c2)ccn1` [Compound I-348, N-{5-[(dimethylsulfamoyl)amino]-3,4′-bipyridin-2′-yl}acetamide] showed an IC50 of 10 to 50 nM.
Still for that read-out and setting: with `Cc1nccc(Nc2cc(-c3cncc(C(C)OCc4ccccn4)c3)ccn2)n1` (stereo not drawn) [Compound I-349, N-(2-methylpyrimidin-4-yl)-5-[1-(pyridin-2-ylmethoxy)ethyl]-3,4′-bipyridin-2′-amine] the figure was 10 to 50 nM.
Molecule `CCCCN(CCCC)S(=O)(=O)Nc1cc(-c2ccnc(NC(C)=O)c2)cnc1C` [Compound I-350, N-{5-[(dibutylsulfamoyl)amino]-6-methyl-3,4′-bipyridin-2′-yl}acetamide] came in with an IC50 of under 10 nM.
Same read-out and setting: with `CC(=O)Nc1cc(-c2cnc(C)c(N3CCNS3(=O)=O)c2)ccn1` [Compound I-352, N-[5-(1,1-dioxido-1,2,5-thiadiazolidin-2-yl)-6-methyl-3,4′-bipyridin-2′-yl]acetamide] the figure was 50 to 100 nM; with `CC(=O)Nc1cc(-c2cnc(C)c(S(=O)(=O)Nc3ccc(F)cc3F)c2)ccn1` [Compound I-353, N-(5-(N-(2,4-difluorophenyl)sulfamoyl)-6-methyl-[3,4′-bipyridin]-2′-yl)acetamide], 10 to 50 nM; with `CC(=O)Nc1cc(-c2cnc(Cl)c(NS(=O)(=O)c3c(Cl)cccc3Cl)c2C)ccn1` [Compound I-354, N-(6-chloro-5-{[(2,6-dichlorophenyl)sulfonyl]amino}-4-methyl-3,4′-bipyridin-2′-yl)acetamide], 10 to 50 nM.
`Cc1c(-c2ccnc(Nc3ccnc(C4CC4)n3)c2)cnc(Cl)c1N` [Compound I-355, 6-chloro-N-2-′-(2-cyclopropylpyrimidin-4-yl)-4-methyl-3,4′-bipyridine-2′,5-diamine]: the IC50 fell in the range of 10 to 50 nM.
Same read-out and setting: with `CC(=O)Nc1cc(-c2cnc(C)c(NS(=O)(=O)c3ccc(C#N)cc3F)c2)ccn1` [Compound I-356, N-(5-{[(4-cyano-2-fluorophenyl)sulfonyl]amino}-6-methyl-3,4′-bipyridin-2′-yl)acetamide] the figure was under 10 nM; with `CC(=O)Nc1cc(-c2cnc(C)c(N3CC(NCc4ccccc4)CS3(=O)=O)c2)ccn1` (stereo not drawn) [Compound I-357, N-{5-[4-(benzylamino)-1,1-dioxidoisothiazolidin-2-yl]-6-methyl-3,4′-bipyridin-2′-yl}acetamide], 10 to 50 nM; with `COc1ncc(-c2ccnc(NC(C)=O)c2)cc1S(=O)(=O)Nc1cc(F)ccc1F` [Compound I-358, N-{5-[(2,5-difluorophenyl)sulfamoyl]-6-methoxy-3,4′-bipyridin-2′-yl}acetamide], 10 to 50 nM.
For the molecule `CC(=O)Nc1cc(-c2cnc(C)c(OS(=O)(=O)N(C)C)c2)ccn1` [Compound I-359, 2′-acetamido-6-methyl-3,4′-bipyridin-5-yl dimethylsulfamate], the IC50 was in the range of 10 to 50 nM.
On the same count and under the same terms, then `Cc1c(-c2ccnc(Nc3ccnc(C4CC4)n3)c2)cnc(Cl)c1C(=O)N1CCC1` [Compound I-361, azetidin-1-yl(6-chloro-2′-((2-cyclopropylpyrimidin-4-yl)amino)-4-methyl-[3,4′-bipyridin]-5-yl)methanone], with 10 to 50 nM; and `CC(=O)Nc1cc(-c2cnc(Cl)c(NS(=O)(=O)c3ccc(C#N)cc3Cl)c2C)ccn1` [Compound I-362, N-(6-chloro-5-{[(2-chloro-4-cyanophenyl)sulfonyl]amino}-4-methyl-3,4′-bipyridin-2′-yl)acetamide], with 10 to 50 nM.
`Cc1nccc(Nc2cc(-c3cnc(C)c(OCc4ccccc4)c3)ccn2)n1` [Compound I-363, 5-(benzyloxy)-6-methyl-N-(2-methylpyrimidin-4-yl)-3,4′-bipyridin-2′-amine] displayed an IC50 of over 100 nM.
The same measure, in the same setting: then `CCOC(=O)Nc1cc(-c2cnc(C)c(NS(=O)(=O)N(C)C)c2)ccn1` [Compound I-364, ethyl {5-[(dimethylsulfamoyl)amino]-6-methyl-3,4′-bipyridin-2′-yl}carbamate], with 10 to 50 nM.
Regarding `CC(=O)Nc1cc(-c2cncc(S(=O)(=O)N(C)c3ccccc3)c2)ccn1` [Compound I-365, N-{5-[methyl(phenyl)sulfamoyl]-3,4′-bipyridin-2′-yl}acetamide], the IC50 lay within 10 to 50 nM.
`CC(=O)Nc1cc(-c2cnc(Cl)c(S(=O)(=O)NC34CC(C3)C4)c2)ccn1` [Compound I-366, N-[5-(bicyclo[1.1.1]pent-1-ylsulfamoyl)-6-chloro-3,4′-bipyridin-2′-yl]acetamide] gave a half-maximal inhibitory concentration (IC50) of 10 to 50 nM.
`CCNC(=O)Nc1cc(-c2ccnc(Nc3ccnc(C)n3)c2)cnc1C` [Compound I-367, 1-ethyl-3-{6-methyl-2′-[(2-methylpyrimidin-4-yl)amino]-3,4′-bipyridin-5-yl}urea] showed an IC50 of 50 to 100 nM.
